Reference: patent publication US7112586B2, “Substituted diamine derivatives useful as motilin antagonists” (Ortho-McNeil Pharmaceutical, Inc., priority 2000, dated 2006)

Columns and labels:
[1] = tested on: motilin induced contraction; assay: Rabbit tissue bath procedure: inhibition of motilin induced contraction of duodenum segments; parameters: species or system New Zealand White rabbit; conditions: 3 nM porcine motilin induced contraction, read-out: Tissues IC50
Description: Rabbit Tissue Bath Procedure
One New Zealand White rabbit (Covance) of either sex was euthanized with an IV injection of Sleepaway. The duodenum was quickly excised, the lumen rinsed with saline to clean, and the tissue placed in cold, aerated (95% O2–5% CO2) Tyrodes buffer (NaCl 136.9 mM, KCl 2.7 mM, CaCl2 1.8 mM, MgCl2 1.04 mM, NaH2PO4 0.42 mM, NaHCO3 11.9 mM, Glucose 5.55 mM, pH 7.4). The duodenum, being kept moist at all times, was cleaned of any excess mesenteric tissue, and then cut into 3 cm segments starting at the proximal end. Sixteen tissue segments were usually prepared from each duodenum. These segments were tied on both ends with 3-0 silk suture (Ethicon). One end of the tissue was attached to an S-hook on a custom made glass support rod (Crown Glass Co., Somerville) and the rod plus tissue were placed in a 15 ml isolated tissue bath (Radnoti). The other end of the glass rod was attached to a Grass Force Displacement Transducer FT03. The tissue was maintained in room temperature Tyrodes buffer pH 7.4 and continually gassed with 95% O2— 5% CO2. The tissues were adjusted to 1.0 g resting tension and maintained at that tension throughout the equilibration period. An Ml2 Tissue Bath Computer was used to record and analyze data.
The tissues were washed twice during a 30 minute equilibration period and readjusted to 1 g resting tension as necessary. After equilibration the tissues were challenged with 3 μM Carbachol (Carbamoylcholine Chloride-Sigma). After maximal contraction was attained, the tissues were washed 3 times with Tyrodes. The tissues were allowed a 20 minute resting/equilibration period, during which time they were washed once and readjusted to 1 g resting tension. The tissues were challenged a second time with 3 μM Carbachol, and this contraction was considered as maximal, or 100% contraction. The tissues were washed 3 times, equilibrated for 10 minutes, washed again and readjusted to 1 g resting tension. Vehicle or test compound in 30% DMSO-50 mM HEPES was added directly to the bath and the tissues were incubated for 20 minutes. Test compounds and vehicle were run in duplicate.
The percent inhibition by test compound of the motilin induced contraction was calculated by first determining the ratio of the vehicle contractions with Motilin compared to the Carbachol contractions. This Tissue Adjustment Factor (TAF) was used to determine the value for the potential uninhibited contraction with Motilin for each tissue. The percent inhibition was then determined by dividing the actual Motilin contraction in treated tissues by the potential uninhibited contraction and subtracting this number from 1. IC50 values were determined by graphing results with Kaleidograph graphing program.

Motilin Receptor = biological target: T1, Motilin Receptor (Oryctolagus cuniculus, UniProt G1T803); assay: Motilin receptor binding, rabbit colon membranes, 125I porcine motilin; parameters: Rabbit Colon % Inh / inhibition / % Inh (Rabbit colon): dose or concentration left out as unconfirmed; conditions: rabbit colon membranes; for inhibition: read-out: Rabbit Colon % Inh; for IC50: read-out: Rabbit Colon IC50
T1 construct: The muscle tissue was homogenized in 10 volumes of 50 mM Tris-Cl; from tissue; host or cells: rabbit colon smooth muscle, crude membrane homogenate
T1 sequence (G1T803 1-400): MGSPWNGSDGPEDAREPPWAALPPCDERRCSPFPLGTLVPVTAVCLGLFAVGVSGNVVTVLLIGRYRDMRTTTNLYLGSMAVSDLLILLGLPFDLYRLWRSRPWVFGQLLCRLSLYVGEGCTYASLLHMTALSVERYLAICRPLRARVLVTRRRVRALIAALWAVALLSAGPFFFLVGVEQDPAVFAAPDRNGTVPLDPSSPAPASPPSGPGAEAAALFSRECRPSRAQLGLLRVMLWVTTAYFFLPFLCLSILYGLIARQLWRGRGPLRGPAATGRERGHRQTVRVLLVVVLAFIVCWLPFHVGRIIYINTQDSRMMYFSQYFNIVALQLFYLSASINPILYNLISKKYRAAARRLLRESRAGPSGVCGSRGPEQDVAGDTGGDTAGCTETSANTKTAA

[2] = biological target: T2, motilin receptor preparation (Human antrum tissue) (Homo sapiens, UniProt O43193); assay: 125I-motilin binding to human antral stomach membranes; conditions: human antrum membranes; for inhibition at 1 µM: read-out: Human Antrum % Inh @1 μM
T2 construct: Human antrum tissue from Analytical Biological Services (Wilmington, Del.) was prepared as a motilin receptor preparation; tissue Analytical Biological Services (Wilmington, Del.); host or cells: human antrum (stomach) muscle tissue, crude membrane homogenate
T2 sequence (O43193 whole entry): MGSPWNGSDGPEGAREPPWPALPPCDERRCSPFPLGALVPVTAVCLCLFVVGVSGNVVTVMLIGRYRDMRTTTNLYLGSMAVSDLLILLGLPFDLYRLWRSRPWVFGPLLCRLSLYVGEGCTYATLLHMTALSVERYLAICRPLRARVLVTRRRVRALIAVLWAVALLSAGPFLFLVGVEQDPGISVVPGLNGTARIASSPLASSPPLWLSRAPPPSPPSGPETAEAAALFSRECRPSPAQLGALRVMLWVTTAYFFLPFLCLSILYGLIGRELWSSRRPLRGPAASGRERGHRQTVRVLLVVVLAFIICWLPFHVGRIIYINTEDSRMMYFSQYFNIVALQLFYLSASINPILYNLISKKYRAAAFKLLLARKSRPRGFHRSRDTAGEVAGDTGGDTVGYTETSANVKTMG
Description: Human antrum tissue from Analytical Biological Services (Wilmington, Del.) was prepared as a motilin receptor preparation in the following manner. The muscle tissue was homogenized in 10 volumes of 50 mM Tris-Cl, 10 mM MgCl2, 0.1 mg/ml bacitracin, and 0.25 mM Peflabloc, pH 7.5) in a Polytron (29000 rpm, 4×15 seconds). The homogenate was centrifuged at 1000×g for 15 minutes and the supernatant discarded. The pellet was washed twice before being suspended in homogenizing buffer. The crude homogenate was resuspended through a 23 gauge needle before aliquoting and storing at −80° C. The human cloned receptor was prepared from HEK 293 cells overexpressed with the motilin receptor. Cell pellets were thawed and resuspended in 2–3 volumes of homogenizing buffer (10 mM Tris-Cl, 0.2 mM MgCl2, 5 mM KCl, 5 μg/ml aprotinin, leupeptin, and pepstatin A, and 50 μg/ml bacitracin, pH 7.5) and allowed to sit on ice for 15–20 minutes. The suspension was homogenized on ice in a Dounce type homogenizer using 15 strokes. Sucrose and EDTA were added to a final concentration of 0.25M and 1 mM, respectively, and mixed with a few additional strokes. The material was centrifuged at 400×g for 5 minutes, and the supernatant saved. The pellet was re-resuspended twice with 5 ml homogenizing buffer and rehomogenized as before, and the supernatants combined. The supernatant was centrifuged at 100000×g for 1 hour. The pellet is retained and resuspended with 5 ml of homogenizing buffer through a 19 g and 25 g needle. The suspension is aliquoted and stored at −80° C. until used. The binding assay contains the following components (50 mM HEPES, 5 mM MgCl2, and 1 mM EGTA, pH 7.0, 15 mg/ml BSA, 10 μg/ml aprotinin, leupeptin, and pepstatin A, 0.25 mg/ml bacitracin, and 10 mM benzamidine), ^125I-radiolabelled porcine motilin (50000–70000 cpm; specific activity 2000 Ci/mmol), test compound, and membrane protein. After 60 minutes at 30° C., the samples are placed on ice and centrifuged for 1 minute at 13000×g. The pellet is washed twice with 1 ml cold saline, and after removal of the final supernatant, the pellet at the bottom of the tube is counted in a gamma counter. Non-specific binding is measured by the inclusion of 1 μM unlabelled motilin. IC50 values were determined from Kaleidograph curves.
125I-Motilin Binding to Human Antral Stomach Membranes and the Human Cloned Receptor: […]

IC50 [1] [nM]	inhibition (Motilin Receptor) [%]	IC50 (Motilin Receptor) [nM]	Human Antrum % Inh @1 μM [2] [%]	IC50 [2] [nM]	inhibition at 1 µM [2] [%]	SMILES
> 30	71	1680				O=C(c1ccc(F)cc1)N(CC1CCCC(N(Cc2cccc(C(F)(F)F)c2)C(=O)C(Cl)(Cl)Cl)C1)c1cccc(OCCN2CCOCC2)c1 (centres unmarked) [compound 96]
30	80	390				CC(C)(C)C(=O)N(Cc1cccc(Cl)c1)C1CCCC(CN(C(=O)c2ccc(F)cc2)c2cccc(OCCN3CCOCC3)c2)C1 (centres unmarked) [compound 105]
30	89	81				O=C(CCCC(=O)N1CCc2ccccc2C1c1ccccc1)N(Cc1ccc(F)cc1)c1cccc(OCCN2CCOCC2)c1 (centres unmarked) [compound 153]
21	85	178				O=C(CCCC(=O)N(Cc1ccc(F)cc1)c1cccc(OCCN2CCOCC2)c1)N(CCc1ccccc1)Cc1cccc(Cl)c1 [compound 162]
19	85	174				O=C(CCC(=O)N(Cc1ccc(F)cc1)c1cccc(OCCN2CCOCC2)c1)N(CCc1ccccc1)Cc1cccc(Cl)c1 [compound 163]
48	84	194				O=C(CCC(=O)N(Cc1cccc(F)c1)c1cccc(OCCN2CCOCC2)c1)N(CCc1ccccc1)Cc1ccccc1 [compound 164]
240	97	46				O=C(CCCC(=O)N(Cc1cccc(F)c1)c1cccc(OCCN2CCOCC2)c1)N(CCc1ccccc1)Cc1ccccc1 [compound 169]
185	81	163				O=C(CCCC(=O)N(Cc1ccccc1F)c1cccc(OCCN2CCOCC2)c1)N(CCc1ccccc1)Cc1ccccc1 [compound 170]
230	63	462				COc1ccc(CN(C(=O)CCCC(=O)N(CCc2ccccc2)Cc2ccccc2)c2cccc(OCCN3CCOCC3)c2)cc1 [compound 171]
280	84	290				O=C(CCCC(=O)N(Cc1ccc(Cl)cc1)c1cccc(OCCN2CCOCC2)c1)N(CCc1ccccc1)Cc1ccccc1 [compound 173]
15	100	70				CCN(CC)CCOc1cccc(N(Cc2ccc(F)cc2)C(=O)CCCC(=O)N(CCc2ccccc2)Cc2ccccc2)c1 [compound 178]
23	85	240				O=C(CCCC(=O)N(Cc1ccc(F)cc1)c1cccc(OCCN2CCNCC2)c1)N(CCc1ccccc1)Cc1ccccc1 [compound 179]
11	99	14				O=C(CCCC(=O)N(Cc1ccc(F)cc1)c1cccc(OCCN2CCCC2)c1)N(CCc1ccccc1)Cc1ccccc1 [compound 180]
12	100	93				CN(C)CCOc1cccc(N(Cc2ccc(F)cc2)C(=O)CCCC(=O)N(CCc2ccccc2)Cc2ccccc2)c1 [compound 181]
53	94	22				O=C(CCCC(=O)N(Cc1ccc(F)cc1)c1cccc(OCCN2CCCCC2)c1)N(CCc1ccccc1)Cc1ccccc1 [compound 182]
92	100	247				O=C(CCCC(=O)N(Cc1ccc(F)cc1)c1cccc(OCCCN2CCCCC2)c1)N(CCc1ccccc1)Cc1ccccc1 [compound 188]
4	100	6				Cc1c(OCCN2CCCC2)cccc1N(Cc1ccc(F)cc1)C(=O)CCCC(=O)N(CCc1ccccc1)Cc1ccccc1 [compound 196]
7.6	85	9				O=C(CCCC(=O)N(Cc1ccc(F)cc1)c1cccc(OCCN2CCCC2)c1)N(CCc1ccccc1)Cc1cccc([N+](=O)[O-])c1 [compound 197]
16.8	93	57				O=C(CCCC(=O)N(Cc1ccc(F)cc1)c1cccc(OCCN2CCCC2)c1)N(CCc1ccccn1)Cc1cccc(Cl)c1 [compound 201]
230	100	330				O=C(CCCC(=O)N(Cc1ccc(F)cc1)c1cccc(OCCN2CCCC2)c1)N(CCc1ccc(Cl)cc1)Cc1cccc(Cl)c1 [compound 202]
3	89	29				O=C(CCCC(=O)N(Cc1ccc(F)cc1)c1cccc(OCCN2CCCC2)c1)N(CCc1cccs1)Cc1cccc(Cl)c1 [compound 204]
21	84	59				Cc1c(OCCN2CCCC2)cccc1N(CC1CCCC(N(Cc2cccc(Cl)c2)C(=O)C(Cl)(Cl)Cl)C1)C(=O)c1ccc(F)cc1 (centres unmarked) [compound 209]
24	90	86				Cc1c(OCCN2CCCC2)cccc1N(CC1CCCC(N(Cc2ccccc2)C(=O)C(Cl)(Cl)Cl)C1)C(=O)c1ccc(F)cc1 (centres unmarked) [compound 210]
27	84	58				O=C(c1ccc(F)cc1)N(CC1CCCC(N(Cc2ccccc2)C(=O)C(Cl)(Cl)Cl)C1)c1cccc(OCCN2CCCC2)c1 (centres unmarked) [compound 213]
			100			CC(C)(C)C(=O)N(Cc1ccccc1)C1CCC(CN(C(=O)c2ccc(F)cc2)c2cccc(OCCN3CCCC3)c2)C1 (centres unmarked) [compound 216]
			98			CC(C)(C)C(=O)N(Cc1cccc(Cl)c1)C1CCC(CN(C(=O)c2ccc(F)cc2)c2cccc(OCCN3CCCC3)c2)C1 (centres unmarked) [compound 217]
			98	7.6		O=C(c1ccc(F)cc1)N(CC1CCC(N(Cc2cccc([N+](=O)[O-])c2)C(=O)C(Cl)(Cl)Cl)C1)c1cccc(OCCN2CCCC2)c1 (centres unmarked) [compound 219]
					92	CC(C)(C)C(=O)N(Cc1ccc(F)c(F)c1)[C@@H]1CC[C@H](CN(C(=O)c2ccc(F)cc2)c2cccc(OCCN3CCCC3)c2)C1 [compound 220]
			94			CC(C)(C)C(=O)N(Cc1ccccc1)C1C=CC(CN(C(=O)c2ccc(F)cc2)c2cccc(OCCN3CCCC3)c2)C1 (centres unmarked) [compound 221]
				25	100	CC(C)(C)C(=O)N(Cc1ccc(Cl)c(Cl)c1)C1CCCC(CN(C(=O)c2ccc(F)cc2)c2cccc(OCCN3CCCC3)c2)C1 (centres unmarked) [compound 227]
